Read-outs that look alike come from different tables or passages of the source.
Assays:
[1] = Cytotoxicity Determination (CCK-8, without addition of virus); assay type: cell-based; details: human, 50% cytotoxicity concentration (CC50)
In short: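 Cytotoxicity was measured by CCK-8 after 3-4 hours at 37 °C, following 5 days of uninfected exposure at 37 °C and 5% CO2. Compounds ran as duplicate 7-point 1/2 dilutions starting at 100 μM, with 1% final DMSO. HEp-2 cells had been plated at 1,500/well the day before.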

RSV replicon = experiment: microbe, parasite or virus in culture; assay type: cell-based; details: human respiratory syncytial virus, read-out: EC50, the concentration of the drug required for reducing RSV replicon RNA by 50%
recombinant RSV complex = recombinant RSV complex (Human respiratory syncytial virus A, UniProt P28887); experiment: RSV Polymerase Inhibition Assay; assay type: biochemical
Sequence of recombinant RSV complex (P28887 whole entry): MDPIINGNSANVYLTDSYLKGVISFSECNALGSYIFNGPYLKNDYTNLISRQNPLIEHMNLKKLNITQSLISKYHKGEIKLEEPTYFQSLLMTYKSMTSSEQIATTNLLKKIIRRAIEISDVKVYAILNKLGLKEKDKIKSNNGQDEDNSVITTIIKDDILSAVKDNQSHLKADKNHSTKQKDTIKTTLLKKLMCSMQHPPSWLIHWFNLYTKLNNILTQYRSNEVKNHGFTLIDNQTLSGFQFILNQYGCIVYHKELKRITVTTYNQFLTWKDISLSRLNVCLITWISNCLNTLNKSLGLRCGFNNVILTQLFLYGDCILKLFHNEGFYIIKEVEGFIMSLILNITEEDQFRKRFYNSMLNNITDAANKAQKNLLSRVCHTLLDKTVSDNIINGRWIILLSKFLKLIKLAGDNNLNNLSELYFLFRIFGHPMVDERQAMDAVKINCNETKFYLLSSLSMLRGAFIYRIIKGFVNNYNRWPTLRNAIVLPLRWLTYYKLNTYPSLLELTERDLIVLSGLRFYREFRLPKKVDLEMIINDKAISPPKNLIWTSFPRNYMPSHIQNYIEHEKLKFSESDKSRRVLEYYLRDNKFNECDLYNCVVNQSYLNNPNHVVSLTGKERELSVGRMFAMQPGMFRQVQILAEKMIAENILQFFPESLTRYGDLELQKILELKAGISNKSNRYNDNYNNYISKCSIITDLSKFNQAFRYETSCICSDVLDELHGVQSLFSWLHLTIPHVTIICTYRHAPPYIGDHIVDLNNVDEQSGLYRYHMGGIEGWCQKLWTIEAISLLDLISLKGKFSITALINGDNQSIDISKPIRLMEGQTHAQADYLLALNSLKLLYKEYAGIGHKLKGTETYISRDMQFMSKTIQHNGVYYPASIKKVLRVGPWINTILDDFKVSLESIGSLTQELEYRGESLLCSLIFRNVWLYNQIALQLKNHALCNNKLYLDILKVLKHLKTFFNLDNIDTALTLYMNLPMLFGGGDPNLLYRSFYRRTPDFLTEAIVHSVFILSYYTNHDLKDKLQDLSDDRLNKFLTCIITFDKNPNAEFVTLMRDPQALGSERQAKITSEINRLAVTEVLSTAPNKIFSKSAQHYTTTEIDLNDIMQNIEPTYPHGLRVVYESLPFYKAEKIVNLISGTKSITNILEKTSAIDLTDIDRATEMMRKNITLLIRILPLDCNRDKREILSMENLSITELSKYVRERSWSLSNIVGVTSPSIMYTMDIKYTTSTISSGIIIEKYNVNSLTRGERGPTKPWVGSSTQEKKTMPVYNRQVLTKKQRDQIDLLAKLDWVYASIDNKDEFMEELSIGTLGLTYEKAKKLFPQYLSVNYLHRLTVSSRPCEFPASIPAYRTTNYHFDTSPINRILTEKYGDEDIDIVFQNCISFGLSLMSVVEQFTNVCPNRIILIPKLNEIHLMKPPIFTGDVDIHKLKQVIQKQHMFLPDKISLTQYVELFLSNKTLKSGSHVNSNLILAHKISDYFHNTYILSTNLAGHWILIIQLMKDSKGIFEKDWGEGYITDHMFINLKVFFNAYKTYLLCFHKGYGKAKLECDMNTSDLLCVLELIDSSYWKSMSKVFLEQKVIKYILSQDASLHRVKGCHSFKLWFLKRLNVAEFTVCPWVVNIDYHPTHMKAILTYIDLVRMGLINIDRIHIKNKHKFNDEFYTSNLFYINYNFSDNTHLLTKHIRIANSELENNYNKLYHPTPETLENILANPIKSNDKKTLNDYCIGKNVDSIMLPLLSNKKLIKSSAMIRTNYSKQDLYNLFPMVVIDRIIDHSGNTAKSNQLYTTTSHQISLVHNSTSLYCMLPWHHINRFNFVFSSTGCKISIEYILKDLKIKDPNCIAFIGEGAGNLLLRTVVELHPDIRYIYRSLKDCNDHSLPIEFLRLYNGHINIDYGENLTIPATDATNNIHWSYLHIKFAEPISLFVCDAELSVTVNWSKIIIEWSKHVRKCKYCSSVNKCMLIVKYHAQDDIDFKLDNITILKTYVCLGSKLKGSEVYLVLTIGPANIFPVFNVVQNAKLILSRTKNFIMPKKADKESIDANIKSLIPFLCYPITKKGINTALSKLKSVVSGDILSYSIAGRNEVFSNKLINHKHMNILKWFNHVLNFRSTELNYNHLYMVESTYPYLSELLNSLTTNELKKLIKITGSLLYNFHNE
Sequence of recombinant RSV complex (P03421 whole entry, further chain): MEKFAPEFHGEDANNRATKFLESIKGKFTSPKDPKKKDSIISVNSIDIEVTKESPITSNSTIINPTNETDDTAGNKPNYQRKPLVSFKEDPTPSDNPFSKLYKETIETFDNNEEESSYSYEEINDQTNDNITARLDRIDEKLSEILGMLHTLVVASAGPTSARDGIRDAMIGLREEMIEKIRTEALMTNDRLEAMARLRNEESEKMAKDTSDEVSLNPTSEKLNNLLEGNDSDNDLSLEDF
In short: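 Inhibition measured as reduced incorporation of radiolabel into RNA products, detected by scintillation counting. Reactions: recombinant RSV complex (10 nM), RNA oligonucleotides, Tris-HCl pH 7.5, 6 mM MgCl2, inhibitor titration, 2 h at 30 °C, EDTA stop.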

[2] = system: Respiratory Syncytial Virus (RSV) long strain; experiment: microbe, parasite or virus in culture; assay type: cell-based; details: human respiratory syncytial virus, Tables A and B list compounds by EC50 band
In short: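 CPE-reduction format: viability measured colorimetrically with CCK-8 (450 nm, 630 nm reference) after 3-4 h, following 5-day infection at 37 °C, 5% CO2. Cells were HEp-2; inoculum 100 TCID50/well; duplicate 9-point 1/3 series starting at 100 μM or 1 μM.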

[3] = HEp-2, 120 h, read-out: 50% effective concentration (EC50), HEp-2 cells infected with RSV long strain, 5 days, CCK-8 readout
[4] = 120 h, read-out: 50% effective concentration (EC50), HEp-2 cells infected with RSV long strain, 5 days, CCK-8 readout

| Compound | CC50 at 5 days [1] | EC50 (RSV replicon) | IC50 (recombinant RSV complex) | EC50 [2, 3] | EC50 [2, 4] | IC50 (recombinant RSV complex; read-out: IC50 (compound concentration at which the enzyme-catalyzed rate was reduced by 50%), 10 nM recombinant RSV complex, 2 h at 30° C., Tables E, F and G list compounds by IC50 band) |
| --- | --- | --- | --- | --- | --- | --- |
| COc1cc(C(=O)NCC(O)(c2cc(C(C)(C)NC(C)=O)cc(-c3ccc(F)c(Cl)c3)n2)C(F)(F)F)ccc1OC1CC1 (centres unmarked) [Compound 326] | 10000 to 100000 nM | < 1000 nM | < 1000 nM | < 1000 nM |  |  |
| COc1cc(C(=O)NCC(O)(c2cc(CN)cc(-c3ccc(F)c(Cl)c3)n2)C(F)(F)F)ccc1OC1CC1 (centres unmarked) [Compound 327] | 10000 to 100000 nM | < 1000 nM | < 1000 nM | < 1000 nM |  |  |
| COc1cc(C(=O)NCC(O)(c2cc(CNC(C)=O)cc(-c3ccc(F)c(Cl)c3)n2)C(F)(F)F)ccc1OC1CC1 (centres unmarked) [Compound 328] | 10000 to 100000 nM | < 1000 nM | < 1000 nM | < 1000 nM |  |  |
| COc1cc(C(=O)NCC(O)(c2cc(C(C)(C)NS(C)(=O)=O)cc(-c3ccc(F)c(Cl)c3)n2)C(F)(F)F)ccc1OC1CC1 (centres unmarked) [Compound 330] | 10000 to 100000 nM | < 1000 nM | < 1000 nM |  | < 1000 nM |  |
| CCOC(=O)NC(C)(C)c1cc(-c2ccc(F)c(Cl)c2)nc(C(O)(CNC(=O)c2ccc(OC3CC3)c(OC)c2)C(F)(F)F)c1 (centres unmarked) [Compound 331] | > 100000 nM | < 1000 nM |  | < 1000 nM |  | < 1000 nM |
| COc1cc(C(=O)NCC(O)(c2ccc(OC)c(-c3ccc(F)c(Cl)c3)n2)C(F)(F)F)ccc1OCCO (centres unmarked) [Compound 334] | 10000 to 100000 nM | < 1000 nM | < 1000 nM | < 1000 nM |  |  |
| COc1cc(C(=O)NCC(O)(c2cc3c(c(-c4ccc(F)c(Cl)c4)n2)NCC3(C)C)C(F)(F)F)ccc1OC1CC1 (centres unmarked) [Compound 335] | > 100000 nM | < 1000 nM | < 1000 nM | < 1000 nM |  |  |
| COc1cc(C(=O)NCC(F)(c2ccc(OC)c(-c3ccc(F)c(Cl)c3)n2)C(F)(F)F)ccc1OC[C@@H](C)O (some centres unmarked) [Compound 342] | 10000 to 100000 nM | < 1000 nM | < 1000 nM | < 1000 nM |  |  |
| COc1cc(C(=O)NCC(F)(c2ccc(OC)c(-c3ccc(F)c(Cl)c3)n2)C(F)(F)F)ccc1OCC(N)=O (centres unmarked) [Compound 343] | 10000 to 100000 nM | < 1000 nM | < 1000 nM | < 1000 nM |  |  |
| COc1cc(C(=O)NCC(F)(c2ccc(OC)c(-c3ccc(F)c(Cl)c3)n2)C(F)(F)F)ccc1OC1CCNC1=O (centres unmarked) [Compound 344] | 10000 to 100000 nM | < 1000 nM | < 1000 nM | < 1000 nM |  |  |
| COc1cc(C(=O)NCC(O)(c2ccc(OC)c(-c3ccc(F)c(Cl)c3)n2)C(F)(F)F)ccc1OC1CCNC1=O (centres unmarked) [Compound 349] | 10000 to 100000 nM | < 1000 nM | < 1000 nM | < 1000 nM |  |  |
| COc1cc(C(=O)NCC(O)(c2cc(C(C)(C)NCCF)cc(-c3ccc(F)c(Cl)c3)n2)C(F)(F)F)ccc1OC1CC1 (centres unmarked) [Compound 356] | 10000 to 100000 nM | < 1000 nM | < 1000 nM | < 1000 nM |  |  |
| COc1cc(C(=O)NCC(O)(c2cc(CN)cc(-c3ccc(F)c(Cl)c3)n2)C(F)(F)F)ccc1OC[C@@H](C)O (some centres unmarked) [Compound 357] | 10000 to 100000 nM | < 1000 nM | < 1000 nM | < 1000 nM |  |  |
| COc1cc(C(=O)NCC(O)(c2ccc(OC)c(-c3ccc(F)c(Cl)c3)n2)C(F)(F)F)ccc1OC1CC1(F)F (centres unmarked) [Compound 358] | > 100000 nM | < 1000 nM | < 1000 nM | < 1000 nM |  |  |
| COc1ccc(C(=O)NCC(O)(c2ccc(OC)c(-c3ccc(F)c(Cl)c3)n2)C2CC2)cc1OC (centres unmarked) [Compound 359] | 10000 to 100000 nM | < 1000 nM | < 1000 nM | < 1000 nM |  |  |
| COc1cc(C(=O)NCC(O)(c2ccc(OC)c(-c3ccc(F)c(Cl)c3)n2)C2CC2)ccc1OCc1ncn[nH]1 (centres unmarked) [Compound 360] | 10000 to 100000 nM | < 1000 nM | < 1000 nM |  | < 1000 nM |  |
| COc1cc(C(=O)NCC(O)(c2cc(CN)cc(-c3ccc(F)cc3)n2)C(F)(F)F)ccc1OC1CC1 (centres unmarked) [Compound 361] | 10000 to 100000 nM | < 1000 nM | < 1000 nM | < 1000 nM |  |  |
| COc1cc(C(=O)NCC(O)(c2ccc(OC)c(-c3ccc(F)c(Cl)c3)n2)C(F)(F)F)ccc1OCC(C)=O (centres unmarked) [Compound 362] | 10000 to 100000 nM | < 1000 nM | < 1000 nM | < 1000 nM |  |  |
| COc1cc(C(=O)NCC(C)(F)c2ccc(OC)c(-c3ccc(F)c(Cl)c3)n2)ccc1OCCF (centres unmarked) [Compound 364] | 10000 to 100000 nM | < 1000 nM | < 1000 nM | < 1000 nM |  |  |

| Compound | CC50 at 5 days [1] | EC50 (RSV replicon) | IC50 (recombinant RSV complex) | EC50 [2, 3] | EC50 [2, 4] | IC50 (recombinant RSV complex; read-out: IC50 (compound concentration at which the enzyme-catalyzed rate was reduced by 50%), 10 nM recombinant RSV complex, 2 h at 30° C., Tables E, F and G list compounds by IC50 band) |
| --- | --- | --- | --- | --- | --- | --- |
| COc1cc(C(=O)NCC(C)(F)c2ccc(OC)c(-c3ccc(F)c(Cl)c3)n2)ccc1OCCO (centres unmarked) [Compound 365] | 10000 to 100000 nM | < 1000 nM | < 1000 nM | < 1000 nM |  |  |
| COc1cc(C(=O)NCC(F)(c2ccc(OC)c(-c3ccc(F)c(Cl)c3)n2)C2CC2)ccc1OCCO (centres unmarked) [Compound 366] | 10000 to 100000 nM | < 1000 nM | < 1000 nM | < 1000 nM |  |  |
| COc1cc(C(=O)NCC(C)(O)c2ccc(OC)c(-c3ccc(F)c(Cl)c3)n2)ccc1OC1CC1 (centres unmarked) [Compound 369] | 10000 to 100000 nM | < 1000 nM | < 1000 nM | < 1000 nM |  |  |
| COc1cc(C(=O)NCC(O)(c2ccc(OC)c(-c3ccc(F)c(Cl)c3)n2)C(F)(F)F)ccc1OC1CC1 (centres unmarked) [Compound 370] | > 100000 nM | < 1000 nM | < 1000 nM |  | < 1000 nM |  |
| COc1cc(C(=O)NCC(C)(O)c2ccc(OC)c(-c3ccc(F)c(Cl)c3)n2)ccc1OC(C)(C)C (centres unmarked) [Compound 371] | 10000 to 100000 nM | < 1000 nM | < 1000 nM | < 1000 nM |  |  |
| COc1cc(C(=O)NCC(C)(O)c2ccc(OC)c(-c3ccc(F)c(Cl)c3)n2)ccc1OCC(F)F (centres unmarked) [Compound 372] | 10000 to 100000 nM | < 1000 nM | < 1000 nM | < 1000 nM |  |  |
| COc1cc(C(=O)NCC(O)(c2ccc(OC)c(-c3ccc(F)c(Cl)c3)n2)C(F)(F)F)ccc1OCC(F)F (centres unmarked) [Compound 373] | > 100000 nM | < 1000 nM | < 1000 nM | < 1000 nM |  |  |
| COc1cc(C(=O)OCC(O)(CN)c2ccc(OC)c(-c3ccc(F)c(Cl)c3)n2)ccc1OC1CC1 (centres unmarked) [Compound 383] | 10000 to 100000 nM | < 1000 nM | < 1000 nM | < 1000 nM |  |  |
| COc1cc(C(=O)NCC(O)(CO)c2ccc(OC)c(-c3ccc(F)c(Cl)c3)n2)ccc1OC1CC1 (centres unmarked) [Compound 384] | 10000 to 100000 nM | < 1000 nM | < 1000 nM | < 1000 nM |  |  |
| COc1cc(C(=O)NCC(F)(CO)c2ccc(OC)c(-c3ccc(F)c(Cl)c3)n2)ccc1OC1CC1 (centres unmarked) [Compound 385] | 10000 to 100000 nM | < 1000 nM | < 1000 nM | < 1000 nM |  |  |
| CCNC(=O)NC(C)(C)c1cc(-c2ccc(F)c(Cl)c2)nc(C(O)(CNC(=O)c2ccc(OC3CC3)c(OC)c2)C(F)(F)F)c1 (centres unmarked) [Compound 387] | > 100000 nM | < 1000 nM | < 1000 nM | < 1000 nM |  |  |
| CCNC(C)(C)c1cc(-c2ccc(F)cc2)nc(C(O)(CNC(=O)c2ccc(OC3CC3)c(OC)c2)C(F)(F)F)c1 (centres unmarked) [Compound 388] | 10000 to 100000 nM | < 1000 nM | < 1000 nM | < 1000 nM |  |  |
| CCNC(C)(C)c1cc(-c2ccc(F)c(Cl)c2)nc(C(O)(CNC(=O)c2ccc(OC[C@H](C)O)c(OC)c2)C(F)(F)F)c1 (some centres unmarked) [Compound 391] | 10000 to 100000 nM | < 1000 nM | < 1000 nM | < 1000 nM |  |  |
| COc1cc(C(=O)NCC(O)(c2cc(C(C)(C)NC(C)C)cc(-c3ccc(F)c(Cl)c3)n2)C(F)(F)F)ccc1OC1CC1 (centres unmarked) [Compound 392] | 10000 to 100000 nM | < 1000 nM | < 1000 nM | < 1000 nM |  |  |
| COc1cc(C(=O)NCC(O)(c2cc(C(C)(C)N)cc(-c3ccc(F)c(Cl)c3)n2)C(F)(F)F)ccc1OCC(C)(C)O (centres unmarked) [Compound 396] | 10000 to 100000 nM | < 1000 nM | < 1000 nM | < 1000 nM |  |  |
| COc1cc(C(=O)NCC(O)(c2cc(C(C)(C)N(C)C)cc(-c3ccc(F)c(Cl)c3)n2)C(F)(F)F)ccc1OC1CC1 (centres unmarked) [Compound 400] | 10000 to 100000 nM | < 1000 nM | < 1000 nM |  | < 1000 nM |  |
| COc1cc(C(=O)NCC(C)(O)c2ccc(OC)c(-c3ccc(F)c(Br)c3)n2)ccc1OCC(N)=O (centres unmarked) [Compound 403] | > 100000 nM | < 1000 nM | < 1000 nM | < 1000 nM |  |  |
| COc1cc(C(=O)NCC(C)(O)c2ccc(OC)c(-c3c[nH]c4c(F)cccc34)n2)ccc1OCC(N)=O (centres unmarked) [Compound 419] | > 100000 nM | < 1000 nM | < 1000 nM | < 1000 nM |  |  |
| COc1cc(C(=O)NCC(O)(CF)c2ccc(OC)c(-c3ccc(F)c(Cl)c3)n2)ccc1OCCO (centres unmarked) [Compound 424] | 10000 to 100000 nM | < 1000 nM | < 1000 nM | < 1000 nM |  |  |

Reference: patent publication US11021444B2, “Antiviral compounds” (priority 2013, dated 2021)
